{
  "source": "patent US6797699B1",
  "about": "“Neuroprotective agents” (University of Southampton, priority 1997, dated 2004)",
  "key": {"[1]": {"test_system": "CA1 pyramidal cell layer of organotypic hippocampal slice cultures", "experiment": "Hypoxic neuronal damage in organotypic hippocampal slice cultures (propidium iodide fluorescence)", "assay_type": "cell-based, Wistar rat", "conditions": "for neuroprotective effect (in words): 300 μM added 30 minutes prior to hypoxia, during hypoxia and the 24 hour recovery period", "method": "Hypoxic neuronal damage was studied using organotypic hippocampal slice cultures [Pringle A. K. et al. (1996 Stroke 27 2124-2130)].\nCultures were prepared according to the method of Stoppini et al (1991 J. Neurosci. Meth. 37 173-182) from 8-10 day old Wistar rat pups (Bioresources Unit, University of Southampton). Cultures were maintained in vitro for 14 days (37° C., 5% CO2) during which the medium (50% minimum essential medium (MEM), 25% Hank's balanced salt solution (HBSS), 25% heat-inactivated horse serum, supplemented with 1 mM glutamine, 5 mg/ml glucose and 1.5% fungizone) was changed every 3 days. Hypoxia was induced by replacing culture medium with serum-free (SF) medium (75% MEM, 25% HBSS, 1 mM glutamine, 5 mg/ml glucose, 1.5% fungizone) saturated with 95% N2/5% CO2 (and thus oxygen-free), and placing cultures in an air-tight chamber in which the atmosphere was also saturated with N2/CO2. After 180 minutes hypoxia, cultures were replated in normoxic SF medium and replaced in the incubator for 24 hours. Compounds were added to cultures either pre-, during and post-hypoxia (herein abbreviated to “pdp”) or just in the post-hypoxic recovery period (“post”) [Johnson, T. D. (1996 Trends Pharmacol. Sci. 22-27)]. Cell damage was evaluated using the fluorescent exclusion dye propidium iodide (PI, 5 μg/ml) which is normally excluded from healthy cells, but enters cells with damaged plasma membranes and becomes highly fluorescent when bound to DNA. Neuronal cell damage was quantified using the “NIH Image 1.55” software (written by Wayne Rasband at the U.S. National Institutes for Health and available from the internet by anonymous ftp from zippy.nimh.nih.gov). Briefly, the area of the CA1, CA3 and dentate gyrus (DG) cell layers was measured from a transmission image. 24 hours after the commencement of hypoxia, a fluorescence image was captured using a standard Leica inverted fluorescence microscope fitted with a rhodamine filter set. The area of PI fluorescence above background in the neuronal cell layers was determined using the density slice function of Image. Cellular damage is expressed as the percentage area of the cell body layers in which PI fluorescence was detectable. After imaging, cultures were fixed overnight in 4% paraformaldehyde and stained with thionin.\nData are expressed as the mean±sem. Data from the non-drug groups was pooled before analysis. Statistical significance was determined using one-way analysis of variance (ANOVA) followed by post-hoc non-paired Student's t-tests. As only cells within the CA1 region were susceptible to hypoxia-induced damage, all of the pharmacological data was calculated for this region alone.\nTable 1 represents the quantification of the percentage area of the CA1 pyramidal cell layer in which PI fluorescence was detectable 24 hours after 3 hours of hypoxia (% Damage CA1). Data from all of the cultures exposed to hypoxia alone were pooled (control hypoxia). The percentage neuroprotection was calculated as the (((% damage control hypoxia-% damage drug treated)/% damage control hypoxia) 100). Data are expressed as the mean±sem, n=number of cultures, *p<0.05, **<0.01, ***p<0.001 vs hypoxia control."}, "[2]": {"test_system": "CA1 pyramidal cell layer of organotypic hippocampal slice cultures", "experiment": "Hypoxic neuronal damage in organotypic hippocampal slice cultures (propidium iodide fluorescence)", "assay_type": "cell-based, Wistar rat", "conditions": "300 μM for 24 hours"}},
  "note": "Marks after values point to notes of the source that are not given here.",
  "data": [
    {"molecule": "N=C(N)NCCCC(N)C(=O)NCCCNCCCCN", "note": "[Compound A, N′-L-Arginylspermidine]", "values": [
      {"measurement": "neuroprotective effect (in words)", "setting": "[1]", "value": "complete protection"},
      {"measurement": "neuroprotective effect (in words)", "setting": "[1]; listed as L-ArgSp", "value": "completely neuroprotective"},
      {"measurement": "neuroprotective effect / reduction of PI fluorescence in CA1 (in words)", "setting": "[1]; 300 μM added post-hypoxia", "value": "significant protective effect"},
      {"measurement": "neuroprotective effect / reduction of PI fluorescence in CA1 (in words)", "setting": "[1]; 300 μM added post-hypoxia, listed as L-ArgSp", "value": "significant neuroprotective effect"},
      {"measurement": "concentration dependence of the neuroprotective effect", "setting": "[1]; 0.3-300 μM added immediately post-hypoxia", "value": "concentration dependent"},
      {"measurement": "EC50", "setting": "[1]; Rattus norvegicus, added immediately post-hypoxia, 0.3-300 μM, read-out: EC50 of the neuroprotective effect", "value": "3 to 30", "unit": "µM"},
      {"measurement": "% Damage CA1", "setting": "[1]; Table 1, 300 μM added post-hypoxia, 3 h hypoxia, PI at 24 h, control hypoxia 35.6 ± 1.43, mean±sem", "value": "9.9 ± 3.5*** %"},
      {"measurement": "% Protection", "setting": "[1]; Table 1, 300 μM added post-hypoxia, vs control hypoxia", "value": "> 70", "unit": "%"},
      {"measurement": "% Protection", "setting": "[1]; Table 1, 300 μM added post-hypoxia, vs control hypoxia, listed as L-ArgSp", "value": 72.2, "unit": "%"},
      {"measurement": "% Damage CA1", "setting": "[1]; Table 1, 300 μM added pre-, during and post-hypoxia (pre), 3 h hypoxia, PI at 24 h, control hypoxia 35.6 ± 1.43, mean±sem, listed as L-ArgSp", "value": "0.2±0.02", "unit": "%"},
      {"measurement": "% Protection", "setting": "[1]; Table 1, 300 μM added pre-, during and post-hypoxia (pre), vs control hypoxia", "value": 99.4, "unit": "%"},
      {"measurement": "% Protection", "setting": "[1]; Table 3, 0.3 μM pdp, fresh batch", "value": 15.5, "unit": "%"},
      {"measurement": "% Damage CA1", "setting": "[1]; Table 3, 0.3 μM pdp, fresh batch, control hypoxia 23.9 ± 2.7", "value": "20.2 ± 8.4", "unit": "%"},
      {"measurement": "% Protection", "setting": "[1]; Table 3, 1 μM pdp, fresh batch", "value": 15.9, "unit": "%"},
      {"measurement": "% Damage CA1", "setting": "[1]; Table 3, 1 μM pdp, fresh batch, control hypoxia 23.9 ± 2.7", "value": "20.1 ± 8.2", "unit": "%"},
      {"measurement": "% Protection", "setting": "[1]; Table 3, 3 μM pdp, fresh batch", "value": 72.8, "unit": "%"},
      {"measurement": "% Damage CA1", "setting": "[1]; Table 3, 3 μM pdp, fresh batch, control hypoxia 23.9 ± 2.7", "value": "6.5 ± 3.0** %"},
      {"measurement": "% Protection", "setting": "[1]; Table 3, 10 μM pdp, fresh batch", "value": 63.2, "unit": "%"},
      {"measurement": "% Damage CA1", "setting": "[1]; Table 3, 10 μM pdp, fresh batch, control hypoxia 23.9 ± 2.7", "value": "8.8 ± 3.9* %"},
      {"measurement": "% Protection", "setting": "[1]; Table 3, 30 μM pdp, fresh batch", "value": 65.9, "unit": "%"},
      {"measurement": "% Damage CA1", "setting": "[1]; Table 3, 30 μM pdp, fresh batch, control hypoxia 23.9 ± 2.7", "value": "7.3 ± 4.2* %"},
      {"measurement": "% Protection", "setting": "[1]; Table 3, 300 μM pdp, fresh batch", "value": 66.5, "unit": "%"},
      {"measurement": "% Damage CA1", "setting": "[1]; Table 3, 300 μM pdp, fresh batch, control hypoxia 23.9 ± 2.7", "value": "8.0 ± 3.0** %"},
      {"measurement": "% Protection", "setting": "[1]; Table 7, 300 μM post", "value": 56.3, "unit": "%"},
      {"measurement": "% Damage CA1", "setting": "[1]; Table 7, 300 μM post, hypoxia control 27.7 ± 3.1", "value": "12.1 ± 3.5** %"},
      {"measurement": "PI fluorescence above baseline after incubation without hypoxia", "setting": "[2]", "value": "no increase in PI fluorescence above baseline was observed"}
    ]}
  ]
}
